Assay: gradient 5% acetonitrile 3 min, to 50% in 2 min, to 85% in 15 min, held 3 min, 100 µL/min
Conditions: column: Zorbax Extend-C18 2.1 x 50 mm; eluents: water / acetonitrile, 0.1% formic acid
Summary of the method: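 Retention time was recorded from adduct peaks, which were picked computationally and each inspected manually. Pure standards ran in mixtures of ~100 molecules on HPLC coupled to a quadrupole time-of-flight mass spectrometer, in positive and negative ionization mode, through a Zorbax Extend-C18 column (2.1 × 50 mm, 1.8 μm) at 100 μL/min. Eluents were water and acetonitrile, each with 0.1% formic acid.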

| SMILES | RP-LC retention time |
| --- | --- |
| COc1ccc(C2(C)NC(=O)N(CC(=O)N3CCc4ccccc43)C2=O)cc1 (configuration not stated) | 750 s |
| COc1cc(Cl)ccc1C(=O)N1CCCC1c1nc(-c2ccccc2)no1 (configuration not stated) | 1070 s |
| N#CCCSc1ccccc1NC(=O)c1ccc([N+](=O)[O-])s1 | 846 s |
| C[C@@H]1C(=O)O[C@H]2[C@H](O)[C@@]34C5C[C@@H](C(C)(C)C)[C@]36[C@H](OC(=O)[C@@H]6O)OC4(C(=O)O5)[C@@]12O (some centres not stated) | 802 s |
| CCOC1CCN(C(=O)NC2CCCCC2)CC1 | 740 s |
| COc1ccc(Cl)cc1S(=O)(=O)NCCn1nc(C)cc1C | 719 s |
| O=C1CCSc2c1cccc2C(=O)N1CCOCC1 | 601 s |
| CC(C)n1cnc2cc(CNC(=O)c3c(F)cccc3F)ccc21 | 612 s |
| Cc1ccc(S(=O)(=O)NNC(=O)C23CCC(CC2)C3)cc1 | 873 s |
| CCCCOc1ccc(-c2cc3c(N4CCN(c5ccccn5)CC4)nccn3n2)cc1 | 822 s |
| CCc1ccc(N2C(=O)CN(S(=O)(=O)c3ccccc3)CC2(C)C(=O)NC2CCCC2)cc1 (configuration not stated) | 821 s |
| CCOC(=O)c1ccc(N2CCCC2)nn1 | 562 s |
| CCc1nnc(-c2ccc3ccn(CC(=O)NCCc4ccccc4)c3c2)o1 | 836 s |
| Cc1nnc2n1CCC(NC(=O)c1ccoc1)CC2 (configuration not stated) | 532 s |
| Cc1ccc(CN2CCNCC2)cc1NC(=O)CNc1ccc(F)c(F)c1 | 639 s |
| Cc1cc2[nH]c(C(=O)Nc3ccc(F)cc3Cl)c(CN3CCOCC3)c2s1 | 721 s |
| CCn1cc(CN2CCC(C(=O)NCCCc3ccccc3)CC2)c2cc(OC)ccc21 | 765 s |
| Cc1ccc(-n2nc(N3CCCC(C(=O)Nc4cc(F)ccc4F)C3)ccc2=O)cc1Cl (configuration not stated) | 1060 s |
| O=C(CC1COc2ccccc2NC1=O)Nc1ccc2c(c1)OCCO2 (configuration not stated) | 688 s |

| SMILES | RP-LC retention time |
| --- | --- |
| CN(C)CC1CN(C(=O)c2ccc(F)c(F)c2)CC12CCOCC2 (configuration not stated) | 578 s |
| CCOc1ccc(-c2noc(Cc3nc(-c4ccc(F)cc4)cs3)n2)cc1 | 1290 s |
| Cc1ccc(-c2ccc(-n3nc(C)c(S(=O)(=O)N4CCCCC4)c3C)nn2)cc1 | 1190 s |
| Cc1cnc(C2CC2)n1C1CCN(S(=O)(=O)c2ccc(C#N)cc2)CC1 | 660 s |
| COCCCn1c(=O)c2ccccc2n(Cc2nc(-c3ccc(OC)c(OC)c3)no2)c1=O | 876 s |
| CCCN(CC1CCOC1)S(=O)(=O)c1ccccc1C(F)(F)F (configuration not stated) | 946 s |
| Cc1nn(C)cc1CNC(=O)c1cnn2c(C(F)F)cc(-c3ccccc3)nc12 | 786 s |
| COCCc1noc(C2CN(S(=O)(=O)Cc3ccccc3)C2)n1 | 780 s |
| Cc1cc(-c2ccc(C)c(S(=O)(=O)N3CCN(c4ccccn4)CC3)c2)on1 | 719 s |
| CCOC(=O)N1CCN(c2nnc(SCC(=O)NCc3ccco3)s2)CC1 | 668 s |
| Cc1noc(-c2cccc(OC3CN(S(=O)(=O)c4c(C)nn(C)c4C)C3)c2)n1 | 850 s |
| Cc1ccc(-c2cc3n(n2)CCCN(C(=O)CCCC(=O)n2nc(C)c4ccccc42)C3)o1 | 859 s |
| COc1ccc(NC(=O)N(C)CCc2noc(COc3ccccc3F)n2)cc1 | 845 s |
| CCOC(=O)C1=Cc2ccc(C(F)(F)C(F)(F)F)cc2N=C(N)C1 | 794 s |
| CC(C)CN(Cc1cccnc1)C1CN(S(=O)(=O)Cc2ccccc2)C1 | 719 s |
| O=C(NCc1cccnc1)C1CCN(C(=O)c2ncn3c2COC(c2ccccc2)C3)CC1 (configuration not stated) | 568 s |
| O=C(Nc1ccc(-c2nnc3n2CCCC3)cc1)c1ccc2ccccc2n1 | 773 s |
| COc1ccc(NS(=O)(=O)c2cc(-c3[nH]ncc3C(=O)N(C)C)oc2C)cc1Cl | 699 s |

Source: the METLIN SMRT retention time set (Domingo-Almenara et al. 2019)
